Measured values taken from patent US12497362B2, “Cyclopentapyrrole orexin receptor agonists” (Merck Sharp & Dohme LLC, priority 2020, dated 2025).

Molecular target: T1, human OX2R (Homo sapiens, UniProt O43614)
T1 construct: expressed in transfected cells; host or cells: CHO (Chinese hamster ovary) cells, grown under G418 selection
T1 sequence (O43614 1-444): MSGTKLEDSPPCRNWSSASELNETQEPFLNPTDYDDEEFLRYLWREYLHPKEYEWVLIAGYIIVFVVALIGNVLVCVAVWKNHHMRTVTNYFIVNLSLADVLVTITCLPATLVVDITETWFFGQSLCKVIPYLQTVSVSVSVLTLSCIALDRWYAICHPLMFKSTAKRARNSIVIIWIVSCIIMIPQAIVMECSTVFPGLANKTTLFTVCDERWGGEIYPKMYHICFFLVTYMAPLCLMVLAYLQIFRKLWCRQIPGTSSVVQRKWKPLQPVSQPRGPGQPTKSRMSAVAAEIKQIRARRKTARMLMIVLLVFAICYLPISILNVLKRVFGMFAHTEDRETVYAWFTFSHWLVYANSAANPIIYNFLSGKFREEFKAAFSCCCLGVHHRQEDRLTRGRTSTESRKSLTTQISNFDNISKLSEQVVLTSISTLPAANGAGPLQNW
Experiment: IPOne (IP-1 accumulation) orexin receptor agonist assay in CHO cells expressing human OX2R
Type: cell-based
Settings: hOX2R IP-One assay, percent of mean max effect of a reference compound at 1 uM with 100% activity established by comparison to Orexin A
Text: The utility of the compounds in accordance with the present invention as orexin receptor OX1R and/or OX2R agonists may be readily determined without undue experimentation by methodology well known in the art. Both the OX1R and/or OX2R G-coupled protein receptors (GPCRs) couple through the Gαq signaling pathway, which ultimately promotes calcium mobilization via inositol triphosphate (IP3) production. The half-life of IP-3 is relatively short, being rapidly metabolized to inositol monophosphate (IP-1), which can be readily detected using a commercially available assay kit (IP-One; Cisbio; cat #621PAPEC) coupled with a cell line expressing the target receptor(s) of interest. The utility of the compounds in accordance with the present invention as orexin receptor OX1R and/or OX2R agonists may be determined utilizing this assay.
In a typical experiment, the OX1 and OX2 receptor agonist activity is determined in accordance with the following general experimental method. Chinese hamster ovary (CHO) cells expressing human OX1R and/or the human OX2R were grown in Iscove's modified DMEM containing glutaMAX™, 1% G418, 100 U/mL penicillin, 100 μg/mL streptomycin and 10% heat-inactivated qualified fetal bovine serum (FBS). The OX2R cells were seeded at 10,000 cells/well/50 μL and the OX1R cells were seeded at 20,000 cells/well/50 μL into 384-well white tissue culture plates (Greiner; cat #781080). All cell/media reagents were from GIBCO-Invitrogen Corp. The seeded cell plate(s) were incubated at 37° C. with 5% CO2 and 85% humidity for 20-24 hours. On the day of the assay, assay-ready compound plates were prepared using an acoustic liquid handler (ECHO; Labcyte), which dispensed sufficient volume of test compound stock (10 mM in DMSO) or 100% DMSO to prepare 10 point, ½-log dilutions in a final volume of 202.5 nL/well in all test wells of a 384-well diamond plate (Labcyte). Following completion of assay-ready plates, importantly, the next three steps were performed with minimal delay: 1) 20 μl of 1× stimulation buffer was added to the compound plate using a Multidrop Combi (small cassette, Thermo Fisher Scientific cat #24073290); 2) culture medium was removed from the cell plate using the Bluewasher plate washer (gentle spin; BlueCatBio); 3) 14 μl of compound/stimulation buffer mixture was added to the cell plate using a Bravo liquid handler (Agilent) prior to incubating cell plates at 37° C. with 5% CO2 and 85% humidity for 1 or 2 hours (OX1R and OX2R, respectively). During this incubation, IP-one detection reagents were prepared (38:1:1 lysis buffer:D2:AB-cryptate reagents). Six μL of mixed detection reagents were added to the cell plate using a Multidrop Combi (small cassette, Thermo Fisher Scientific cat #24073290) and incubated 60 minutes at room temperature in the dark. Fluorescence signal was detected using an Envision plate reader (Perkin Elmer) [LANCE/DELFIA Dual Enh (Em: APC 665; Ex: Cy5 620)].
For each compound, data were fit to a four parameter logistic fit (ActivityBase software) and the EC50 was reported as the inflection point of the resulting curve. Percent effect for each test compound was determined as the percentage of sample raw value/mean max effect, where the mean max effect was derived from the mean raw value of 32 control wells per assay plate (using Orexin A (cat #003-30) at 1 μM for human OX1R and a reference compound at 1 uM with 100% activity previously established by comparison to Orexin A for human OX2R). The intrinsic orexin receptor agonist activity of a compound which may be used in the present invention may be determined by these assays.

Row | SMILES | Emax [%]
1 | COC(=O)N1[C@@H]2COC[C@@H]2[C@H](NS(=O)(=O)CF)[C@@H]1CO[C@H]1CC[C@@H](c2cccc(F)c2)CC1 [Example 6, methyl (2R,3S,3aS,6aS)-3-((fluoromethyl)sulfonamido)-2-((((1s,4S)-4-(3-fluorophenyl)-cyclohexyl)oxy)methyl)hexahydro-1H-furo[3,4-b]pyrrole-1-carboxylate] | 102
2 | COC(=O)N1[C@@H]2COC[C@@H]2[C@H](NS(C)(=O)=O)[C@@H]1CO[C@H]1CC[C@@H](c2cccc(F)c2)CC1 [Example 4, methyl (2R,3S,3aS,6aS)-2-((((1s,4S)-4-(3-fluorophenyl)cyclohexyl)oxy)methyl)-3-(methylsulfonamido)hexahydro-1H-furo[3,4-b]pyrrole-1-carboxylate] | 101
3 | COC(=O)N1[C@@H]2COC[C@@H]2[C@H](NS(=O)(=O)N(C)C)[C@@H]1CO[C@H]1CC[C@@H](c2cccc(F)c2)CC1 [Example 5, methyl (2R,3S,3aS,6aS)-3-((N,N-dimethylsulfamoyl)amino)-2-((((1s,4S)-4-(3-fluorophenyl)cyclohexyl)oxy)methyl)hexahydro-1H-furo[3,4-b]pyrrole-1-carboxylate] | 101
4 | COC(=O)N1[C@@H]2CC[C@@H]2[C@H](NS(C)(=O)=O)[C@@H]1CO[C@H]1CC[C@@H](c2ccccc2)CC1 [Example 11, methyl (1R,3R,4S,5S)-4-(methylsulfonamido)-3-((((1s,4S)-4-phenylcyclohexyl)oxy)methyl)-2-azabicyclo[3.2.0]heptane-2-carboxylate] | 103
5 | COC(=O)N1[C@@H]2CCC[C@@H]2[C@H](NS(C)(=O)=O)[C@@H]1CO[C@H]1CC[C@@H](c2cccc(F)c2)CC1 [Example 1, methyl (2R,3S,3aS,6aR)-2-((((1s,4S)-4-(3-fluorophenyl)cyclohexyl)oxy)methyl)-3-(methylsulfonamido)hexahydrocyclopenta[b]pyrrole-1(2H)-carboxylate] | 101
6 | CC(C)OC(=O)N1[C@@H]2CCC[C@@H]2[C@H](NS(C)(=O)=O)[C@@H]1COC1CCN(c2ncc(F)cn2)CC1 [Example 10, Isopropyl (2R,3S,3aS,6aR)-2-(((1-(5-fluoropyrimidin-2-yl)piperidin-4-yl)oxy)methyl)-3-(methylsulfonamido)hexahydrocyclopenta[b]pyrrole-1(2H)-carboxylate] | 103
7 | COC(=O)N1[C@@H]2CCC[C@@H]2[C@H](NS(=O)(=O)N(C)C)[C@@H]1CO[C@H]1CC[C@@H](c2cccc(F)c2)CC1 [Example 2, methyl (2R,3S,3aS,6aR)-3-((N,N-dimethylsulfamoyl)amino)-2-((((1s,4S)-4-(3-fluorophenyl)cyclohexyl)oxy)methyl)hexahydrocyclopenta[b]pyrrole-1(2H)-carboxylate] | 101
8 | COC(=O)N1[C@@H]2CCC[C@@H]2[C@H](NS(=O)(=O)N(C)C)[C@@H]1CO[C@H]1CC[C@@H](c2ccccc2)CC1 [Example 8, Methyl (2R,3S,3aS,6aR)-3-((N,N-dimethylsulfamoyl)amino)-2-((((1s,4S)-4-phenyl-cyclohexyl)oxy)methyl)hexahydrocyclopenta[b]pyrrole-1(2H)-carboxylate] | 98
9 | COC(=O)N1[C@@H]2CCC[C@@H]2[C@H](NS(C)(=O)=O)[C@@H]1CO[C@H]1CC[C@@H](c2ccccc2)CC1 [Example 7, Methyl (2R,3S,3aS,6aR)-3-(methylsulfonamido)-2-((((1s,4S)-4-phenylcyclohexyl)oxy)-methyl)hexahydrocyclopenta[b]pyrrole-1(2H)-carboxylate] | 101
10 | COC(=O)N1[C@@H]2CCC[C@@H]2[C@H](NS(C)(=O)=O)[C@@H]1COC1CCN(c2ncc(F)cn2)CC1 [Example 9, Methyl (2R,3S,3aS,6aR)-2-(((1-(5-fluoropyrimidin-2-yl)piperidin-4-yl)oxy)methyl)-3-(methylsulfonamido)hexahydrocyclopenta[b]pyrrole-1(2H)-carboxylate] | 97
11 | CNS(=O)(=O)N[C@H]1[C@H]2CCC[C@H]2N(C(=O)OC)[C@H]1CO[C@H]1CC[C@@H](c2cccc(F)c2)CC1 [Example 3, methyl (2R,3S,3aS,6aR)-2-((((1s,4S)-4-(3-fluorophenyl)cyclohexyl)oxy)methyl)-3-((N-methylsulfamoyl)amino)hexahydrocyclopenta[b]pyrrole-1(2H)-carboxylate] | 98
